# Reference: ChEMBL document CHEMBL1131829, “Novel protein kinase C inhibitors: synthesis and PKC inhibition of beta-substituted polythiophene derivatives” (Bioorg Med Chem Lett, 1999)
# Target: Protein kinase C (PKC)
# Assay: Inhibition of protein kinase C
# Format: protein assay, Rattus norvegicus
row,SMILES,IC50
1,O=Cc1ccsc1,> 0.004 M
2,OCc1csc(-c2cccs2)c1,> 0.001 M
3,O=Cc1csc(-c2ccc(-c3ccc(CO)s3)s2)c1,0.00003 M
4,OCc1csc(-c2ccc(-c3ccc(CO)s3)s2)c1,0.0003 M
5,O=Cc1csc(-c2ccc(-c3cccs3)s2)c1,5e-06 M
6,O=Cc1ccc(-c2ccc(-c3cc(CO)cs3)s2)s1,3e-07 M
7,OCc1csc(-c2ccc(CO)s2)c1,> 0.001 M
8,OCc1ccsc1,> 0.004 M
9,O=Cc1csc(-c2cccs2)c1,0.0005 M
10,OCc1csc(-c2ccc(-c3cccs3)s2)c1,3e-06 M
11,O=Cc1csc(-c2ccc(C=O)s2)c1,0.001 M
12,O=Cc1csc(-c2ccc(-c3ccc(C=O)s3)s2)c1,7e-07 M
13,CN1CCN(CCCN2c3ccccc3Sc3ccc(C(F)(F)F)cc32)CC1 [TRIFLUOPERAZINE],0.0005 M
